In patent publication US20080254152A1, “Methods for Reducing the Effects of Stress on Skin Condition” (priority 2003, published 2008):
“Also recorded” adds a separate entry of the source.

System: ICAM-1 expression in HUVECs
Experiment: ICAM-1 expression in HUVECs pre-treated 5 days with dexamethasone, then oxidatively stressed with PMA (ELISA)
Type: cell-based, Human
Conditions: then 1 μM PMA, HUVEC
Description: An in vitro model has been developed to investigate the impact of chronic stress on the inflammatory status of endothelial cells. • a. Cells are grown in 6-well (9.5 cm^2) plates. • b. […] Tissue culture supernatant and cell pellets are harvested at timepoint T0. • d. The cells are oxidatively stressed with 1 μM Phorbol Myristate Acetate (PMA). • e. Tissue culture supernatant and cell pellets were harvested at 6, 24 and 48 hours (T6, T24 and T48, respectively) post-PMA treatment. • f. All tissue culture supernatant was assayed for Lactate Dehydrogenase (LDH), as a measure of cytotoxicity, and Interleukin-6 synthesis. • g. All cells were counted (Beckman Coulter Counter) and pelleted and cell lysate assayed for ICAM-1 expression (Intra Cellular Adhesion Molecule 1).
HUVEC cells (Human umbilical vein endothelial cells, TCS Biologicals) were cultured and passaged in EGM-2 (Endothelial growth medium, Biowhittaker) supplemented with heparin, VEGF (vascular endothelial growth factor), gentamicin sulphate, ascorbic acid, HEGF (Human endothelial growth factor), hydrocortisone, HFGF-B (Human fibroblast growth factor B), R3-IGF-1 (long R insulin-like growth factor 1) and FBS (foetal bovine serum).
Cells were routinely plated out in 6-well tissue culture dishes, at a seeding density of ˜5000 cells/cm^2 in 2 ml complete medium/well, 48 hours before starting the experiment, and incubated at 37° C. in 5% CO2.
Pre-treatment and test solutions were prepared in EGM-2 containing all supplements except hydrocortisone.
Following this, the cells were oxidatively stressed for 24 hours with 1 μM PMA (Sigma P8139).
Receptor antagonists were added to the cells during the pre-treatment period. These included the Glucocorticoid Receptor Antagonist; 2 μM Mifepristone (Sigma M8046) and two CRH receptor antagonists; 200 nM Astressin (Sigma A4933) and 200 nM α-helical CRF peptide antagonist (Sigma C2917).
Any change in cell morphology was noted before the cells were harvested. Both the tissue culture supernatant and the endothelial cells were harvested after the five-day pre-treatment period (T0), at 6 hours and 24 hours after addition of PMA (T6 and T24) and at 24 hours after removal of the PMA (T48). All tissue culture supernatants were stored at −20° C.
All cell pellets were lysed on ice for 30 minutes in 1 ml cell lysis buffer per 2.5×10^6 cells. The lysis buffer contained 1% NP-40, 0.1% sodium deoxycholate, 0.1% SDS, 6 mM sodium chloride and 0.05M Tris at pH 7.6. Protease inhibitor cocktail ([…]; Sigma P8340) was added prior to use at a level of 10 μl per ml of lysis buffer. The partially lysed cell pellets were completely homogenised with a pellet pestle and unwanted cell debris removed by centrifugation for 20 minutes at 20,000 g at 4° C. The clarified cell lysate was frozen at −80° C. until needed.
The total protein concentration of each cell lysate was measured using the Pierce BCA protein assay kit. A set of eight standard solutions ranging from 0 to 1200 μg/ml protein was prepared from the supplied 2 mg/ml BSA stock solution. 10 μl of standard or cell lysate was added to duplicate wells of a flat-bottomed, 96-well microtitre plate. The reagent solution was prepared according to the kit instructions from 50 parts reagent A and 1 part reagent B. 200 μl of the final reagent was added to each well of the microtitre plate. The plate was mixed, covered and incubated at 37° C. for 30 minutes and absorbance read at 562 nm.
ICAM-1 protein in each cell lysate was estimated using the Human sICAM-1 DuoSet ELISA kit (R&D Systems DY720) according to the manufacturer's instructions.
The capture antibody was diluted to a final concentration of 4 μg/ml in PBS and 100 μl was used to coat each well of a 96-well microtitre plate overnight at room temperature. The plate was then washed three times with wash buffer (0.05% Tween 20 in PBS).

[1] = agent 10 μM during 5-day 1 μM dexamethasone pre-treatment
[2] = agent 1 μM during 5-day 1 μM dexamethasone pre-treatment

Cc1cccc(Nc2cc(Cl)nc(SCC(=O)O)n2)c1C [WY14643]
Effective? (suppression of ICAM-1 synthesis in chronically stressed endothelial cells) [1]: No

C=C1[C@@H](O)[C@@H]2O[C@]3(CC[C@H](/C=C/[C@@H](C)[C@@H]4CC(C)=C[C@@]5(O[C@H](C[C@@](C)(O)C(=O)O)CC[C@H]5O)O4)O3)CC[C@H]2O[C@@H]1[C@@H](O)C[C@H](C)[C@H]1O[C@@]2(CCCCO2)CC[C@H]1C [Okadaic acid]
Effective? (suppression of ICAM-1 synthesis in chronically stressed endothelial cells) (agent 1 nM during 5-day 1 μM dexamethasone pre-treatment): Yes

Oc1ccc(C=Cc2cc(O)cc(O)c2)cc1 [Resveratrol]
Effective? (suppression of ICAM-1 synthesis in chronically stressed endothelial cells) [1]: No

Alliin
Effective? (suppression of ICAM-1 synthesis in chronically stressed endothelial cells) [1]: No

CC#C[C@]1(O)CC[C@H]2[C@@H]3CCC4=CC(=O)CCC4=C3[C@@H](c3ccc(N(C)C)cc3)C[C@@]21C [Mifepristone]
ICAM-1 expression compared with cells without chronic GC treatment (2 μM mifepristone during chronic 1 μM glucocorticoid pre-treatment): below that seen in cells that had not received chronic GC treatment | Effect on oxidative stress-induced increase in ICAM-1 expression (2 μM mifepristone during chronic 1 μM glucocorticoid pre-treatment, FIG. 3): significant reduction; also recorded: completely blocked

CC(C)CC[C@@H](O)[C@@H](C)[C@H]1CC[C@H]2[C@@H]3CC=C4C[C@@H](O)CC[C@]4(C)[C@H]3CC[C@]12C [22-OH-cholesterol, 22-(R)-Hydroxycholesterol]
Effective? (suppression of ICAM-1 synthesis in chronically stressed endothelial cells) [2]: Yes

CCNC(=O)CC[C@H](N)C(=O)O [Theanine]
Effective? (suppression of ICAM-1 synthesis in chronically stressed endothelial cells) [1]: No

O=C(O)/C=C/c1ccc(O)c(O)c1 [Caffeic acid]
Effective? (suppression of ICAM-1 synthesis in chronically stressed endothelial cells) (agent 150 μM during 5-day 1 μM dexamethasone pre-treatment): No

Mevinolin
Effective? (suppression of ICAM-1 synthesis in chronically stressed endothelial cells) [2]: Yes
